Data from patent US9840494B2, “Quinazoline derivative” (Tianjin Hemay Oncology Pharmaceutical Co., Ltd., priority 2013, dated 2017).
Like-named read-outs stand apart in the source and are kept apart here.

Assay: Bioavailability assay in rats, Experiment I (dihydrochloride)
Assay type: in vivo
Settings: Wistar rats; for half-life: read-out: T½ elimination half-life (converted)
Method: Experiment I. Bioavailability Assay for N-[4-(3-chloro-4-fluorophenylamino)-7-(2-methoxyethoxy)quinazolin-6-yl]-2-[1-(2-methoxyethyl)piperidin-4-ylidene]acetamide Dihydrochloride in Rats
12 Wistar rats (male, weighing 200-220 g) were purchased from Beijing Vital River Laboratory Animal Technology Co., Ltd. License No.: SCXK (Beijing) 2007-0001.
2.1 30 mg of N-[4-(3-chloro-4-fluorophenylamino)-7-(2-methoxyethoxy)quinazolin-6-yl]-2-[1-(2-methoxyethyl)piperidin-4-ylidene]acetamide dihydrochloride was weighted, and 6 ml of ultrapure water was added thereto to prepare a sample solution (5 mg/ml)) for use in intravenous administration.
2.2 30 mg of N-[4-(3-chloro-4-fluorophenylamino)-7-(2-methoxyethoxy)quinazolin-6yl]-2-[1-(2-methoxyethyl)piperidin-4-ylidene]acetamide dihydrochloride was weighted, and 12 ml of ultrapure water was added thereto to prepare a sample solution (2.5 mg/ml)) for use in intragastric administration.
4.1.1 HPLC Conditions: chromatographic column: octadecyl-bonded silica gel as filler (4.6 mm×50 mm, 1.8 μm), Agilent; mobile phase: methanol: 5 mM ammonium acetate (PH4.0) (60: 40); flow rate: 1 ml/min; column temperature: 40° C.
Ion: 544.3→457.1 (N-[4-(3-chloro-4-fluorophenylamino)-7-(2-methoxyethoxy)quinazolin-6-yl]-2-[1-(2-methoxyethyl)piperidin-4-ylidene]acetamide dihydrochloride)
Dwell Time: 80; fragment voltage: 180; collision energy: 25;
1 mg of N-[4-(3-chloro-4-fluorophenylamino)-7-(2-methoxyethoxy)quinazolin-6-yl]-2-[1-(2-methoxyethyl)piperidin-4-ylidene]acetamide dihydrochloride was weighted and formulated into a solution in methanol (1 mg/ml)). The solution was then diluted stepwise into standard solutions of 50 ng/ml, 100 ng/ml, 200 ng/ml, 500 ng/ml, 1 μg/ml, 2 μg/ml, 5 μg/ml, 10 μg/ml, 20 μg/ml, 50 μg/ml, and 100 μg/ml. 10 μl of the standard solutions were separately pipetted into centrifuge tubes (1.5 ml). 10 μl of internal standard (1 μg/ml Lipitor solution in methanol) was added thereto. 100 μl of rat plasma was then added thereto. The mixture was vortexed. Then 200 μl of acetonitrile was added to precipitate protein, then vortexed for 1 min and centrifuged at 16000 r/min for 8 min 10 μl of the supernatant was directly injected for measurement.
12 rats were randomly divided into two groups, i.e. six rats per group. These rats were fasted and ad libitum accessed to water for 12 hours before administration. Blank blood (about 0.5 ml) of each rat was withdrawn, and then N-[4-(3-chloro-4-fluorophenylamino)-7-(2-methoxyethoxy)quinazolin-6-yl]-2-[1-(2-methoxyethyl)piperidin-4-ylidene]acetamide dihydrochloride (20 mg/kg) was administrated via intragastric gavage and tail intravenous injection, respectively. Blood (about 0.5 ml) was withdrawn from the orbital venous plexus at different time points after the administration (blood collection points for tail intravenous administration were: 5 min, 15 min, 0.5 h, 1 h, 2 h, 3 h, 4 h, 6 h, 8 h, 12 h, 18 h, 24 h, 30 h; and blood collection time-points for intragastric administration were: 5 min, 10 min, 20 min, 30 min, 45 min, 1 h, 2 h, 3 h, 4 h, 6 h, 8 h, 12 h, 18 h, 24 h, 30 h). The blood was drawn into a heparinized centrifuge tube and centrifuged at 8000 r/min for 10 min 100 μl of the plasma was pipetted into a centrifuge tube (1.5 ml), and 10 μl of internal standard (1 μg/ml atorvastatin hemi-calcium salt solution in methanol) was added thereto. The resulting mixture was vortexed. Then 200 μl of acetonitrile was added to precipitate protein, vortexed for 1 min and centrifuged at 16000 r/min for 8 min The supernatant was recovered, and 10 μl of the supernatant was directly injected for detection.
5.1 A standard curve with the natural logarithm of the sample concentration as abscissa and the natural logarithm of the peak area ratio of the sample to the internal standard as ordinate was established as: y=1.008x−4.149; R2=0.998
Method for the calculation of bioavailability: F=(AUCig×Div)/(AUCiv×Dig)×100% […]

[1] = male, rat, plasma, oral, 20 mg/kg ig, read-out: Average Plasma Drug Concentration
[2] = male, rat, plasma, po, 20 mg/kg ig
[3] = male, rat, plasma, 20 mg/kg iv, read-out: Average Plasma Drug Concentration

COCCOc1cc2ncnc(Nc3ccc(F)c(Cl)c3)c2cc1NC(=O)C=C1CCN(CCOC)CC1.Cl.Cl [Compound 2, N-[4-(3-chloro-4-fluorophenylamino)-7-(2-methoxyethoxy)quinazolin-6yl]-2-[1-(2-methoxyethyl)piperidin-4-ylidene]acetamide dihydrochloride]
K (elimination rate constant) (20 mg/kg iv): 0.14
bioavailability (male, rat, plasma, oral, 20 mg/kg ig vs 20 mg/kg iv): 56.9%
concentration at 0.167 h (male, rat, plasma, oral, 20 mg/kg ig, 0.167 h, read-out: Average Plasma Drug Concentration): 39.4 ng/mL
concentration at 0.33 h (male, rat, plasma, oral, 20 mg/kg ig, 0.33 h, read-out: Average Plasma Drug Concentration): 145 ng/mL
concentration at 0.5 h [1]: 202 ng/mL
concentration at 0.75 h (male, rat, plasma, oral, 20 mg/kg ig, 0.75 h, read-out: Average Plasma Drug Concentration): 285 ng/mL
concentration at 1 h [1]: 342 ng/mL
concentration at 2 h [1]: 342 ng/mL
concentration at 3 h [1]: 406 ng/mL
concentration at 4 h [1]: 468 ng/mL
concentration at 6 h [1]: 536 ng/mL
concentration at 8 h [1]: 495 ng/mL
concentration at 12 h [1]: 330 ng/mL
concentration at 18 h [1]: 139 ng/mL
concentration at 24 h [1]: 72.4 ng/mL
concentration at 30 h [1]: 22.7 ng/mL
concentration at 0.083 h (male, rat, plasma, oral, 20 mg/kg intragastric gavage (ig), read-out: Average Plasma Drug Concentration): 17.1 ng/mL
AUC [2]: 7350 ng·h/mL
half-life [2]: 4.73 h
AUC (male, rat, plasma, 20 mg/kg iv): 12900 ng·h/mL
concentration at 0.25 h (male, rat, plasma, 20 mg/kg iv, 0.25 h, read-out: Average Plasma Drug Concentration): 3240 ng/mL
concentration at 0.5 h [3]: 2700 ng/mL
concentration at 1 h [3]: 1720 ng/mL
concentration at 2 h [3]: 1330 ng/mL
concentration at 3 h [3]: 989 ng/mL
concentration at 4 h [3]: 748 ng/mL
concentration at 6 h [3]: 557 ng/mL
concentration at 8 h [3]: 547 ng/mL
concentration at 12 h [3]: 325 ng/mL
concentration at 18 h [3]: 181 ng/mL
concentration at 24 h [3]: 80.8 ng/mL
concentration at 30 h [3]: 29.6 ng/mL
half-life (male, rat, plasma, 20 mg/kg iv): 5.18 h
concentration at 0.083 h (male, rat, plasma, 20 mg/kg tail intravenous injection (iv), read-out: Average Plasma Drug Concentration): 4850 ng/mL
